Reference: ChEMBL document CHEMBL1201862, “PubChem BioAssay data set” (2004)
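Briefly, cells in 96-well plates were exposed to five compound concentrations for 48 h, and endpoints were estimated by linear interpolation. GI50 marks 50% less growth.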 Activity calls are given as the source filed them. Rule as the data show it: active = GI50 up to about 1.1 µM and inactive = higher.

What was measured:
Assay in all cases: DTP human tumour cell line panel, 48 h
[1] = test system: IGROV-1
[2] = test system: BT-549
[3] = test system: NCI/ADR-RES
[4] = test system: T47D
[5] = test system: NCI-H23
[6] = test system: HOP-92
[7] = test system: A549
[8] = test system: 786-0
[9] = test system: TK-10
[10] = test system: OVCAR-4
[11] = test system: MDA-MB-231
[12] = test system: NCI-H460
[13] = test system: LOX IMVI
[14] = test system: MCF7
[15] = test system: HCC 2998
[16] = test system: COLO 205
[17] = test system: ACHN
[18] = test system: SK-OV-3
[19] = test system: SNB-19
[20] = test system: NCI-H226
[21] = test system: A498
[22] = test system: NCI-H522
[23] = test system: Hs-578T
[24] = test system: SK-MEL-2
[25] = test system: MOLT-4
[26] = test system: UO-31
[27] = test system: SF-295
[28] = test system: EKVX
[29] = test system: M14
[30] = test system: DU-145
[31] = test system: HL-60
[32] = test system: OVCAR-5
[33] = test system: MDA-N
[34] = test system: PC-3
[35] = test system: U-251
[36] = test system: HT-29
[37] = test system: SF-539
[38] = test system: RXF 393
[39] = test system: UACC-257
[40] = test system: SK-MEL-5
[41] = test system: HCT-15
[42] = test system: HCT-116
[43] = test system: CAKI-1
[44] = test system: SK-MEL-28
[45] = test system: KM12
[46] = test system: MDA-MB-435
[47] = test system: CCRF-CEM
[48] = test system: SF-268
[49] = test system: SW-620
[50] = test system: Malme-3M
[51] = test system: SN12C
[52] = test system: OVCAR-8
[53] = test system: HOP-62
[54] = test system: SR
[55] = test system: OVCAR-3
[56] = test system: UACC-62
[57] = test system: K562
[58] = test system: RPMI-8226

In the case of `C=C1CC(OC(C)=O)/C=C(/C)CCC(C(C)(C)O)CC1O` (configuration not stated), the GI50 [1] was > 100 µM (inactive), the GI50 [2] was > 100 µM (inactive) and the GI50 [3] was > 100 µM (inactive). For the same molecule, the GI50 [4] was > 100 µM (inactive), the GI50 [5] was > 100 µM (inactive) and the GI50 [6] was > 100 µM (inactive). For the same molecule, the GI50 [7] was > 100 µM (inactive), the GI50 [8] was > 100 µM (inactive) and the GI50 [9] was > 100 µM (inactive). For the same molecule, the GI50 [10] was > 100 µM (inactive), the GI50 [11] was > 100 µM (inactive) and the GI50 [12] was > 100 µM (inactive). For the same molecule, the GI50 [13] was > 100 µM (inactive), the GI50 [14] was > 100 µM (inactive) and the GI50 [15] was > 100 µM (inactive). For the same molecule, the GI50 [16] was > 100 µM (inactive), the GI50 [17] was > 100 µM (inactive) and the GI50 [18] was > 100 µM (inactive). The GI50 [19] was > 100 µM (inactive), the GI50 [20] was > 100 µM (inactive) and the GI50 [21] was > 100 µM (inactive). For the same molecule, the GI50 [22] was > 100 µM (inactive), the GI50 [23] was > 100 µM (inactive) and the GI50 [24] was > 100 µM (inactive). For the same molecule, the GI50 [25] was > 100 µM (inactive), the GI50 [26] was > 100 µM (inactive) and the GI50 [27] was > 100 µM (inactive). For the same molecule, the GI50 [28] was > 100 µM (inactive), the GI50 [29] was > 100 µM (inactive) and the GI50 [30] was > 100 µM (inactive). The GI50 [31] was > 100 µM (inactive), the GI50 [32] was > 100 µM (inactive) and the GI50 [33] was > 100 µM (inactive). For the same molecule, the GI50 [34] was > 100 µM (inactive), the GI50 [35] was > 100 µM (inactive) and the GI50 [36] was > 100 µM (inactive). The GI50 [37] was > 100 µM (inactive), the GI50 [38] was > 100 µM (inactive) and the GI50 [39] was > 100 µM (inactive). The GI50 [40] was > 100 µM (inactive), the GI50 [41] was greater than 100 µM and the GI50 [42] was > 100 µM (inactive). For the same molecule, the GI50 [43] was > 100 µM (inactive), the GI50 [44] was > 100 µM (inactive) and the GI50 [45] was > 100 µM (inactive). The GI50 [46] was > 100 µM (inactive), the GI50 [47] was > 100 µM (inactive) and the GI50 [48] was > 100 µM (inactive). For the same molecule, the GI50 [49] was > 100 µM (inactive), the GI50 [50] was > 100 µM (inactive) and the GI50 [51] was > 100 µM (inactive). The GI50 [52] was > 100 µM (inactive), the GI50 [53] was > 100 µM (inactive) and the GI50 [54] was > 100 µM (inactive). The GI50 [55] was > 100 µM (inactive) and the GI50 [56] was > 100 µM (inactive).
In the case of `O=c1oc2ccc([N+](=O)[O-])cc2cc1Br`, the GI50 [1] was > 100 µM (inactive), the GI50 [2] was > 100 µM (inactive) and the GI50 [3] was > 100 µM (inactive). The GI50 [4] was 70.6 µM (inactive), the GI50 [5] was > 100 µM (inactive) and the GI50 [6] was 86.3 µM (inactive). The GI50 [7] was > 100 µM (inactive), the GI50 [8] was > 100 µM (inactive) and the GI50 [9] was > 100 µM (inactive). For the same molecule, the GI50 [10] was > 100 µM (inactive), the GI50 [11] was > 100 µM (inactive) and the GI50 [12] was > 100 µM (inactive). For the same molecule, the GI50 [13] was 61.2 µM (inactive), the GI50 [57] was > 100 µM (inactive) and the GI50 [14] was > 100 µM (inactive). The GI50 [15] was > 100 µM (inactive), the GI50 [16] was > 100 µM (inactive) and the GI50 [17] was 78.5 µM (inactive). The GI50 [19] was > 100 µM (inactive), the GI50 [20] was > 100 µM (inactive) and the GI50 [58] was 53.7 µM (inactive). For the same molecule, the GI50 [21] was > 100 µM (inactive), the GI50 [22] was > 100 µM (inactive) and the GI50 [23] was > 100 µM (inactive). The GI50 [24] was > 100 µM (inactive), the GI50 [25] was > 100 µM (inactive) and the GI50 [26] was > 100 µM (inactive). For the same molecule, the GI50 [27] was > 100 µM (inactive), the GI50 [28] was > 100 µM (inactive) and the GI50 [29] was 35.7 µM (inactive). For the same molecule, the GI50 [30] was > 100 µM (inactive), the GI50 [31] was 39 µM (inactive) and the GI50 [32] was > 100 µM (inactive). The GI50 [33] was > 100 µM (inactive), the GI50 [34] was > 100 µM (inactive) and the GI50 [35] was > 100 µM (inactive). The GI50 [36] was > 100 µM (inactive), the GI50 [37] was > 100 µM (inactive) and the GI50 [38] was 21.7 µM (inactive). For the same molecule, the GI50 [39] was > 100 µM (inactive), the GI50 [40] was > 100 µM (inactive) and the GI50 [42] was > 100 µM (inactive). The GI50 [43] was > 100 µM (inactive), the GI50 [44] was > 100 µM (inactive) and the GI50 [45] was > 100 µM (inactive). For the same molecule, the GI50 [46] was > 100 µM (inactive), the GI50 [47] was 57.5 µM (inactive) and the GI50 [48] was 27.4 µM (inactive). The GI50 [49] was > 100 µM (inactive), the GI50 [50] was > 100 µM (inactive) and the GI50 [51] was > 100 µM (inactive). The GI50 [52] was > 100 µM (inactive), the GI50 [53] was 71.6 µM (inactive) and the GI50 [54] was 47.3 µM (inactive). The GI50 [55] was > 100 µM (inactive) and the GI50 [56] was 31.6 µM (inactive).
